Assays:
native geph = experiment: µSPOT peptide microarray binding assay with native geph from mouse brain lysate
gephE = experiment: µSPOT peptide microarray binding assay with recombinant gephE
FL-geph = experiment: µSPOT peptide microarray binding assay with full-length geph
[1] = µSPOT peptide microarray, GlyRβ full positional scan, native geph from mouse brain lysate, intensity normalised to wild-type sequence DLRSNDFSIVGSLPR (=1)
[2] = µSPOT peptide microarray, GlyRβ full positional scan, recombinant gephE, intensity normalised to wild-type sequence DLRSNDFSIVGSLPR (=1)
[3] = µSPOT peptide microarray, GlyRβ full positional scan, intensity normalised to wild-type sequence DLRSNDFSIVGSLPR (=1)
[4] = µSPOT full positional scan of GlyRβ 15-mer DLRSNDFSIVGSLPR, native geph, intensity normalised to wild-type sequence (= 1)
[5] = µSPOT full positional scan of GlyRβ 15-mer DLRSNDFSIVGSLPR, intensity normalised to wild-type sequence (= 1)

Sequence: DLRSNTFSIVGSLPR [GlyRβ_Full_Positional_Scan_116]
- Native geph Binding Intensity [norm.] (native geph; [1]): 0.75 norm.
- gephE Binding Intensity [norm.] (gephE; [2]): 0.85 norm.
- Fl-geph Binding Intensity [norm.] (FL-geph; [3]): 0.97 norm.

Sequence: DLRSNDFSISGSLPR [GlyRβ_Full_Positional_Scan_195, GlyR β 414-428 variant V423S]
- Native geph Binding Intensity [norm.] (native geph; [1]): 0.3 norm.
- gephE Binding Intensity [norm.] (gephE; [2]): 0.41 norm.
- Fl-geph Binding Intensity [norm.] (FL-geph; [3]): 0.64 norm.

Sequence: DLRSNDFSIVGSLPG [GlyRβ_Full_Positional_Scan_282]
- Native geph Binding Intensity [norm.] (native geph; [4]): 0.84 norm.
- gephE Binding Intensity [norm.] (gephE; [5]): 0.88 norm.
- Fl-geph Binding Intensity [norm.] (FL-geph; [5]): 0.92 norm.

Sequence: DLRSNDFSAVGSLPR [GlyRβ_Full_Positional_Scan_161, GlyR β 414-428 variant I422A]
- Native geph Binding Intensity [norm.] (native geph; [1]): 0.52 norm.
- gephE Binding Intensity [norm.] (gephE; [2]): 0.56 norm.
- Fl-geph Binding Intensity [norm.] (FL-geph; [3]): 0.81 norm.

Sequence: DLRSNDFSIVGSLPV [GlyRβ_Full_Positional_Scan_286]
- Native geph Binding Intensity [norm.] (native geph; [4]): 0.96 norm.
- gephE Binding Intensity [norm.] (gephE; [5]): 1.06 norm.
- Fl-geph Binding Intensity [norm.] (FL-geph; [5]): 0.97 norm.

Sequence: DLFSNDFSIVGSLPR [GlyRβ_Full_Positional_Scan_047]
- Native geph Binding Intensity [norm.] (native geph; [1]): 1.18 norm.
- gephE Binding Intensity [norm.] (gephE; [2]): 0.89 norm.
- Fl-geph Binding Intensity [norm.] (FL-geph; [3]): 1.29 norm.

Sequence: DLRSNDASIVGSLPR [GlyRβ_Full_Positional_Scan_121, GlyR β 414-428 variant F420A]
- Native geph Binding Intensity [norm.] (native geph; [1]): 0.32 norm.
- gephE Binding Intensity [norm.] (gephE; [2]): 0.48 norm.
- Fl-geph Binding Intensity [norm.] (FL-geph; [3]): 0.53 norm.

Sequence: DLRSNDFSNVGSLPR [GlyRβ_Full_Positional_Scan_179, GlyR β 414-428 variant I422N]
- Native geph Binding Intensity [norm.] (native geph; [1]): 0.42 norm.
- gephE Binding Intensity [norm.] (gephE; [2]): 0.6 norm.
- Fl-geph Binding Intensity [norm.] (FL-geph; [3]): 0.57 norm.

Sequence: DLRSNDFSIVGSVPR [GlyRβ_Full_Positional_Scan_246]
- Native geph Binding Intensity [norm.] (native geph; [4]): 0.82 norm.
- gephE Binding Intensity [norm.] (gephE; [5]): 0.92 norm.
- Fl-geph Binding Intensity [norm.] (FL-geph; [5]): 1.06 norm.

Sequence: DLRGNDFSIVGSLPR [GlyRβ_Full_Positional_Scan_062]
- Native geph Binding Intensity [norm.] (native geph; [1]): 1.16 norm.
- gephE Binding Intensity [norm.] (gephE; [2]): 0.99 norm.
- Fl-geph Binding Intensity [norm.] (FL-geph; [3]): 0.88 norm.

Sequence: DWRSNDFSIVGSLPR [GlyRβ_Full_Positional_Scan_028]
- Native geph Binding Intensity [norm.] (native geph; [1]): 0.6 norm.
- gephE Binding Intensity [norm.] (gephE; [2]): 0.8 norm.
- Fl-geph Binding Intensity [norm.] (FL-geph; [3]): 0.82 norm.

Sequence: DDRSNDFSIVGSLPR [GlyRβ_Full_Positional_Scan_030]
- Native geph Binding Intensity [norm.] (native geph; [1]): 0.9 norm.
- gephE Binding Intensity [norm.] (gephE; [2]): 1.07 norm.
- Fl-geph Binding Intensity [norm.] (FL-geph; [3]): 1.26 norm.

Sequence: DLRSNDFSIVGSLPE [GlyRβ_Full_Positional_Scan_291]
- Native geph Binding Intensity [norm.] (native geph; [4]): 0.49 norm.
- gephE Binding Intensity [norm.] (gephE; [5]): 0.82 norm.
- Fl-geph Binding Intensity [norm.] (FL-geph; [5]): 0.84 norm.

Sequence: DLRSNDFSIDGSLPR [GlyRβ_Full_Positional_Scan_190, GlyR β 414-428 variant V423D]
- Native geph Binding Intensity [norm.] (native geph; [1]): 0.28 norm.
- gephE Binding Intensity [norm.] (gephE; [2]): 0.46 norm.
- Fl-geph Binding Intensity [norm.] (FL-geph; [3]): 0.35 norm.

Sequence: DLRMNDFSIVGSLPR [GlyRβ_Full_Positional_Scan_078]
- Native geph Binding Intensity [norm.] (native geph; [1]): 1.07 norm.
- gephE Binding Intensity [norm.] (gephE; [2]): 1.02 norm.
- Fl-geph Binding Intensity [norm.] (FL-geph; [3]): 1.08 norm.

Sequence: DLRSNLFSIVGSLPR [GlyRβ_Full_Positional_Scan_104]
- Native geph Binding Intensity [norm.] (native geph; [1]): 0.37 norm.
- gephE Binding Intensity [norm.] (gephE; [2]): 0.78 norm.
- Fl-geph Binding Intensity [norm.] (FL-geph; [3]): 0.9 norm.

Sequence: DLRSNDFSIVGSLPD [GlyRβ_Full_Positional_Scan_290]
- Native geph Binding Intensity [norm.] (native geph; [4]): 0.66 norm.
- gephE Binding Intensity [norm.] (gephE; [5]): 0.96 norm.
- Fl-geph Binding Intensity [norm.] (FL-geph; [5]): 1.21 norm.

Sequence: DLRSRDFSIVGSLPR [GlyRβ_Full_Positional_Scan_092]
- Native geph Binding Intensity [norm.] (native geph; [1]): 0.62 norm.
- gephE Binding Intensity [norm.] (gephE; [2]): 0.89 norm.
- Fl-geph Binding Intensity [norm.] (FL-geph; [3]): 0.77 norm.

Sequence: DLRSNDFSWVGSLPR [GlyRβ_Full_Positional_Scan_168, GlyR β 414-428 variant I422W]
- Native geph Binding Intensity [norm.] (native geph; [1]): 0.2 norm.
- gephE Binding Intensity [norm.] (gephE; [2]): 0.59 norm.
- Fl-geph Binding Intensity [norm.] (FL-geph; [3]): 0.67 norm.

Sequence: DLRSNDFSGVGSLPR [GlyRβ_Full_Positional_Scan_162, GlyR β 414-428 variant I422G]
- Native geph Binding Intensity [norm.] (native geph; [1]): 0.34 norm.
- gephE Binding Intensity [norm.] (gephE; [2]): 0.56 norm.
- Fl-geph Binding Intensity [norm.] (FL-geph; [3]): 0.53 norm.

Sequence: DLRSNDFCIVGSLPR [GlyRβ_Full_Positional_Scan_157, GlyR β 414-428 variant S421C]
- Native geph Binding Intensity [norm.] (native geph; [1]): 0.36 norm.
- gephE Binding Intensity [norm.] (gephE; [2]): 0.66 norm.
- Fl-geph Binding Intensity [norm.] (FL-geph; [3]): 0.71 norm.

Sequence: DLRSNDFSIVGVLPR [GlyRβ_Full_Positional_Scan_226]
- Native geph Binding Intensity [norm.] (native geph; [4]): 0.74 norm.
- gephE Binding Intensity [norm.] (gephE; [5]): 0.69 norm.
- Fl-geph Binding Intensity [norm.] (FL-geph; [5]): 1.01 norm.

Sequence: DLRSNDFSIVGSLFR [GlyRβ_Full_Positional_Scan_267]
- Native geph Binding Intensity [norm.] (native geph; [4]): 0.28 norm.
- gephE Binding Intensity [norm.] (gephE; [5]): 0.71 norm.
- Fl-geph Binding Intensity [norm.] (FL-geph; [5]): 0.78 norm.

Sequence: DLRSNDFSIVGSCPR [GlyRβ_Full_Positional_Scan_257]
- Native geph Binding Intensity [norm.] (native geph; [4]): 0.88 norm.
- gephE Binding Intensity [norm.] (gephE; [5]): 0.85 norm.
- Fl-geph Binding Intensity [norm.] (FL-geph; [5]): 0.87 norm.

Sequence: DLRSNDFKIVGSLPR [GlyRβ_Full_Positional_Scan_154, GlyR β 414-428 variant S421K]
- Native geph Binding Intensity [norm.] (native geph; [1]): 0.24 norm.
- gephE Binding Intensity [norm.] (gephE; [2]): 0.65 norm.
- Fl-geph Binding Intensity [norm.] (FL-geph; [3]): 0.92 norm.

Sequence: ILRSNDFSIVGSLPR [GlyRβ_Full_Positional_Scan_003]
- Native geph Binding Intensity [norm.] (native geph; [1]): 0.86 norm.
- gephE Binding Intensity [norm.] (gephE; [2]): 1.15 norm.
- Fl-geph Binding Intensity [norm.] (FL-geph; [3]): 1.09 norm.

Sequence: DLRSNDFSIVGSHPR [GlyRβ_Full_Positional_Scan_253]
- Native geph Binding Intensity [norm.] (native geph; [4]): 1.16 norm.
- gephE Binding Intensity [norm.] (gephE; [5]): 1.08 norm.
- Fl-geph Binding Intensity [norm.] (FL-geph; [5]): 1.02 norm.

Sequence: DLRSNDNSIVGSLPR [GlyRβ_Full_Positional_Scan_139, GlyR β 414-428 variant F420N]
- Native geph Binding Intensity [norm.] (native geph; [1]): 0.4 norm.
- gephE Binding Intensity [norm.] (gephE; [2]): 0.52 norm.
- Fl-geph Binding Intensity [norm.] (FL-geph; [3]): 0.63 norm.

Sequence: MLRSNDFSIVGSLPR [GlyRβ_Full_Positional_Scan_018]
- Native geph Binding Intensity [norm.] (native geph; [1]): 1.2 norm.
- gephE Binding Intensity [norm.] (gephE; [2]): 1.13 norm.
- Fl-geph Binding Intensity [norm.] (FL-geph; [3]): 1.04 norm.

Sequence: DLRSNDFSIVGSMPR [GlyRβ_Full_Positional_Scan_258]
- Native geph Binding Intensity [norm.] (native geph; [4]): 0.92 norm.
- gephE Binding Intensity [norm.] (gephE; [5]): 0.69 norm.
- Fl-geph Binding Intensity [norm.] (FL-geph; [5]): 1.08 norm.

Sequence: DLRSNDFSIVGSLDR [GlyRβ_Full_Positional_Scan_270]
- Native geph Binding Intensity [norm.] (native geph; [4]): 0.4 norm.
- gephE Binding Intensity [norm.] (gephE; [5]): 0.58 norm.
- Fl-geph Binding Intensity [norm.] (FL-geph; [5]): 0.82 norm.

Sequence: DLRSNDFSIVGSLPN [GlyRβ_Full_Positional_Scan_299]
- Native geph Binding Intensity [norm.] (native geph; [4]): 1.37 norm.
- gephE Binding Intensity [norm.] (gephE; [5]): 0.98 norm.
- Fl-geph Binding Intensity [norm.] (FL-geph; [5]): 1.36 norm.

Sequence: DLRSNDFSIVGSLER [GlyRβ_Full_Positional_Scan_271]
- Native geph Binding Intensity [norm.] (native geph; [4]): 0.28 norm.
- gephE Binding Intensity [norm.] (gephE; [5]): 0.32 norm.
- Fl-geph Binding Intensity [norm.] (FL-geph; [5]): 0.75 norm.

Sequence: DLRSNDFSINGSLPR [GlyRβ_Full_Positional_Scan_199, GlyR β 414-428 variant V423N]
- Native geph Binding Intensity [norm.] (native geph; [1]): 0.17 norm.
- gephE Binding Intensity [norm.] (gephE; [2]): 0.4 norm.
- Fl-geph Binding Intensity [norm.] (FL-geph; [3]): 0.79 norm.

Sequence: DLRFNDFSIVGSLPR [GlyRβ_Full_Positional_Scan_067]
- Native geph Binding Intensity [norm.] (native geph; [1]): 0.98 norm.
- gephE Binding Intensity [norm.] (gephE; [2]): 0.92 norm.
- Fl-geph Binding Intensity [norm.] (FL-geph; [3]): 0.92 norm.

Sequence: DLRNNDFSIVGSLPR [GlyRβ_Full_Positional_Scan_079]
- Native geph Binding Intensity [norm.] (native geph; [1]): 0.88 norm.
- gephE Binding Intensity [norm.] (gephE; [2]): 0.92 norm.
- Fl-geph Binding Intensity [norm.] (FL-geph; [3]): 0.99 norm.

Sequence: DLRSNDFSIVGSDPR [GlyRβ_Full_Positional_Scan_250]
- Native geph Binding Intensity [norm.] (native geph; [4]): 0.61 norm.
- gephE Binding Intensity [norm.] (gephE; [5]): 0.72 norm.
- Fl-geph Binding Intensity [norm.] (FL-geph; [5]): 1.05 norm.

Source: PMC7753147, “High-throughput determination of protein affinities using unmodified peptide libraries in nanomolar scale” (iScience, 2020)
